Assay results reported in ChEMBL document CHEMBL5316302, “Deciphering Nonbioavailable Substructures Improves the Bioavailability of Antidepressants by Serotonin Transporter” (J Med Chem, 2023).
The source made the active and inactive calls. The calls are words filed in the database; no cut-off is given here.

Assays:
[1] = molecular target: Sodium-dependent serotonin transporter (Homo sapiens, UniProt P31645); experiment: Inhibition of SERT receptor (unknown origin)
[2] = Volume of distribution at steady state in Beagle dog at 1 mg/kg, iv measured upto 24 hrs by LC-MS/MS analysis; type: ADME, organism-based, Canis lupus familiaris; conditions: in vivo, read-out: Vdss
[3] = Volume of distribution at steady state in Sprague-Dawley rat at 1 mg/kg, iv measured upto 24 hrs by LC-MS/MS analysis; type: ADME, organism-based; conditions: in vivo, read-out: Vdss
[4] = Cmax in Sprague-Dawley rat at 1 mg/kg, iv measured upto 24 hrs by LC-MS/MS analysis; type: ADME, organism-based; set-up: time < 24 hrs, dose 1 mg/kg, route iv; conditions: in vivo
[5] = Cmax in Beagle dog at 1 mg/kg, iv measured upto 24 hrs by LC-MS/MS analysis; type: ADME, organism-based, Canis lupus familiaris; set-up: dose 1 mg/kg, time < 24 hrs, route iv; conditions: in vivo
[6] = Cmax in Sprague-Dawley rat at 2.5 mg/kg, po measured upto 24 hrs by LC-MS/MS analysis; type: ADME, organism-based; set-up: dose 2.5 mg/kg, time < 24 hrs, route po; conditions: in vivo
[7] = Cmax in Beagle dog at 5 mg/kg, po measured upto 24 hrs by LC-MS/MS analysis; type: ADME, organism-based, Canis lupus familiaris; set-up: time < 24 hrs, dose 5 mg/kg, route po; conditions: in vivo
[8] = AUC (0 to t) in Sprague-Dawley rat at 1 mg/kg, iv measured upto 24 hrs by LC-MS/MS analysis; type: ADME, organism-based; set-up: time < 24 hrs, dose 1 mg/kg, route iv; conditions: in vivo; for AUCt: 24 h
[9] = AUC (0 to t) in Beagle dog at 1 mg/kg, iv measured upto 24 hrs by LC-MS/MS analysis; type: ADME, organism-based, Canis lupus familiaris; set-up: dose 1 mg/kg, time < 24 hrs, route iv; conditions: in vivo
[10] = AUC (0 to t) in Sprague-Dawley rat at 2.5 mg/kg, po measured upto 24 hrs by LC-MS/MS analysis; type: ADME, organism-based; set-up: dose 2.5 mg/kg, time < 24 hrs, route po; conditions: in vivo
[11] = AUC (0 to t) in Beagle dog at 5 mg/kg, po measured upto 24 hrs by LC-MS/MS analysis; type: ADME, organism-based, Canis lupus familiaris; set-up: dose 5 mg/kg, time < 24 hrs, route po; conditions: in vivo
[12] = Half life in Sprague-Dawley rat at 1 mg/kg, iv measured upto 24 hrs by LC-MS/MS analysis; type: ADME, organism-based; conditions: in vivo
[13] = Half life in Beagle dog at 1 mg/kg, iv measured upto 24 hrs by LC-MS/MS analysis; type: ADME, organism-based, Canis lupus familiaris; conditions: in vivo
[14] = Half life in Sprague-Dawley rat at 2.5 mg/kg, po measured upto 24 hrs by LC-MS/MS analysis; type: ADME, organism-based; conditions: in vivo
[15] = Half life in Beagle dog at 5 mg/kg, po measured upto 24 hrs by LC-MS/MS analysis; type: ADME, organism-based, Canis lupus familiaris; conditions: in vivo
[16] = Clearance in Sprague-Dawley rat at 1 mg/kg, iv measured upto 24 hrs by LC-MS/MS analysis; type: ADME, organism-based; conditions: in vivo; for CL: iv, 1 mg/kg, 24 h
[17] = Clearance in Beagle dog at 1 mg/kg, iv measured upto 24 hrs by LC-MS/MS analysis; type: ADME, organism-based, Canis lupus familiaris; conditions: in vivo
[18] = Oral bioavailability in Sprague-Dawley rat at 2.5 mg/kg measured upto 24 hrs by LC-MS/MS analysis; type: ADME, organism-based; conditions: in vivo
[19] = Oral bioavailability in Sprague-Dawley rat at 5 mg/kg measured upto 24 hrs by LC-MS/MS analysis; type: ADME, organism-based; conditions: in vivo
[20] = Drug concentration in Sprague-Dawley rat plasma at 10 mg/kg, ip measured at 15 min by LC/MS-MS analysis; type: ADME, organism-based
[21] = Drug concentration in Sprague-Dawley rat plasma at 10 mg/kg, ip measured at 60 min by LC/MS-MS analysis; type: ADME, organism-based
[22] = Drug concentration in Sprague-Dawley rat plasma at 10 mg/kg, ip measured at 120 min by LC/MS-MS analysis; type: ADME, organism-based
[23] = Drug concentration in Sprague-Dawley rat brain at 10 mg/kg, ip measured at 15 min by LC/MS-MS analysis; type: ADME, organism-based; conditions: read-out: Ct
[24] = Drug concentration in Sprague-Dawley rat brain at 10 mg/kg, ip measured at 60 min by LC/MS-MS analysis; type: ADME, organism-based; conditions: read-out: Ct
[25] = Drug concentration in Sprague-Dawley rat brain at 10 mg/kg, ip measured at 120 min by LC/MS-MS analysis; type: ADME, organism-based; conditions: read-out: Ct
[26] = Ratio of drug concentration in brain to plasma in Sprague-Dawley rat at 10 mg/kg, ip measured at 15 min by LC-MS/MS analysis; type: ADME, organism-based; conditions: read-out: BPR
[27] = Ratio of drug concentration in brain to plasma in Sprague-Dawley rat at 10 mg/kg, ip measured at 60 min by LC-MS/MS analysis; type: ADME, organism-based; conditions: read-out: BPR
[28] = Ratio of drug concentration in brain to plasma in Sprague-Dawley rat at 10 mg/kg, ip measured at 120 min by LC-MS/MS analysis; type: ADME, organism-based; conditions: read-out: BPR
Hypothalamus [29] = experiment: Inhibition of PCA-induced serotonin depletion in Sprague-Dawley rat hypothalamus assessed as recovery of 5-HT concentration at 10 mg/kg, ip by HPLC analysis (Rvb= 200 ng/g); type: functional
Hypothalamus [30] = experiment: Inhibition of PCA-induced serotonin depletion in Sprague-Dawley rat hypothalamus assessed as recovery of 5-HT concentration at 1 mg/kg, ip by HPLC analysis; type: functional, organism-based
Rattus norvegicus [31] = experiment: Antidepressant activity in ip dosed Sprague-Dawley rat assessed as reduction in immobility time measured after 15 mins by forced swim test; type: functional, organism-based; conditions: dose 3-10 mg/kg
Rattus norvegicus [32] = experiment: Antidepressant activity in Sprague-Dawley rat assessed as reduction in immobility time at 10 mg/kg ip measured after 15 mins by forced swim test; type: functional; conditions: 0.25 h
Hypothalamus [33] = experiment: Inhibition of PCA-induced serotonin depletion in Sprague-Dawley rat hypothalamus assessed as recovery of 5-HT concentration at 3 mg/kg, ip by HPLC analysis; type: functional, organism-based
Rattus norvegicus [34] = experiment: Antidepressant activity in Sprague-Dawley rat assessed as reduction in immobility time at 3 mg/kg ip measured after 15 mins by forced swim test; type: functional; conditions: 0.25 h
[35] = Oral bioavailability in human at 2.5 to […]; type: ADME, organism-based; conditions: in vivo, dose lower 2.5 mg/kg

Chain of Sodium-dependent serotonin transporter (P31645 whole entry): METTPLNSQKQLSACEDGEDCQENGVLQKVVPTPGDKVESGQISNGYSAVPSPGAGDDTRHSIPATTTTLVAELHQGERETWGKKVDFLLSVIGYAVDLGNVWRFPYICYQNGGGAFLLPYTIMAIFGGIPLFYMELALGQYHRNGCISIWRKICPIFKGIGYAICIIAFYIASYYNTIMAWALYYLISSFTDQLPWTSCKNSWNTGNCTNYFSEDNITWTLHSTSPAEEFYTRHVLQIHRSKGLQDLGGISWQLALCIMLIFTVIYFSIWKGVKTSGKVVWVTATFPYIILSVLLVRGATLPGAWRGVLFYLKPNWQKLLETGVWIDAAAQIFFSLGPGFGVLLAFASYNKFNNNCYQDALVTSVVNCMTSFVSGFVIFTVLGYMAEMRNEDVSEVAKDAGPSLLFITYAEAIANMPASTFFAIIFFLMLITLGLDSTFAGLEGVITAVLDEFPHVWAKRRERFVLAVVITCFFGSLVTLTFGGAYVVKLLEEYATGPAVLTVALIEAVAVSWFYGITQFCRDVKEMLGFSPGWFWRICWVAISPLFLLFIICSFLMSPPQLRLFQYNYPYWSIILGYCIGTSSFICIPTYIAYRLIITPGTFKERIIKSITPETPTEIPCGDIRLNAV

Row | IC50 [1] [nM] | Vd [2] [L/kg] | Vd [3] [L/kg] | Cmax [4] [ng/mL] | Cmax [5] [ng/mL] | Cmax [6] [ng/mL] | Cmax [7] [ng/mL] | AUCt [8] [ng·h/mL] | AUCt [9] [ng·h/mL] | AUC(0-t) at 24 h [10] [ng·h/mL] | AUC(0-t) at 24 h [11] [ng·h/mL] | half-life [12] [h] | half-life [13] [h] | half-life [14] [h] | half-life [15] [h] | CL [16] [mL/min/kg] | CL [17] [mL/min/kg] | bioavailability [18] [%] | bioavailability [19] [%] | SMILES | other results
1 | 0.58 | 3.4 | 6.41 | 193 | 520 | 180 | 794 | 1340 | 2820 | 2790 | 7540 | 7.53 | 4.39 | 7.28 | 16.4 | 193 | 85.7 | 83.3 | 53.5 | N#Cc1ccc2[nH]cc(CCCCN3CCN(c4ncc(-c5ccc(F)cc5F)cn4)CC3)c2c1 | concentration at 0.25 h [20]: 253 ng/mL; concentration at 1 h [21]: 651 ng/mL; concentration at 2 h [22]: 935 ng/mL; concentration at 0.25 h [23]: 459 ng/g; concentration at 1 h [24]: 2240 ng/g; concentration at 2 h [25]: 2960 ng/g; Kp at 0.25 h [26]: 1.82; Kp at 1 h [27]: 3.45; Kp at 2 h [28]: 3.17; Activity (Hypothalamus [29]): 500 ng/g; Activity (Hypothalamus [30]): Active; Activity (Rattus norvegicus [31]): Dose-Dependent Effect; Time (Rattus norvegicus [32]): <100 s
2 | 0.32 | 5.52 | 5.46 | 444 | 536 | 207 | 820 | 1870 | 2840 | 2950 | 6800 | 9.52 | 20.8 | 9.73 | 15.7 | 125 | 61 | 52.6 | 47.8 | N#Cc1ccc2[nH]cc(CCCCN3CCN(c4ncc(-c5ccc(Cl)cc5)cn4)CC3)c2c1 | 
3 | < 2 |  |  |  |  |  |  |  |  |  |  |  |  |  |  |  |  |  |  | COc1ccccc1-c1cnc(N2CCN(CCCCc3c[nH]c4ccc(C#N)cc34)CC2)nc1 | 
4 | < 2 |  |  |  |  |  |  |  |  |  |  |  |  |  |  |  |  |  |  | N#Cc1ccc2[nH]cc(CCCCN3CCN(c4ncc(-c5ccc(F)cc5)cn4)CC3)c2c1 | 
5 |  | 2.14 | 3.74 |  | 488 | 173 | 454 |  | 791 | 443 | 2020 | 1.45 | 1.32 | 2.9 | 2.15 |  |  | 47.5 | 52.5 | N#Cc1ccc2[nH]cc(CCCCN3CCN(c4ccc5oc(C(N)=O)cc5c4)CC3)c2c1 [VILAZODONE] | AUC(0-t) at 24 h ([8]; Sprague-Dawley): 409 ng·h/mL; clearance ([16]; Sprague-Dawley): 40.2 mL/min/kg; concentration at 0.25 h [20]: 1330 ng/mL; concentration at 1 h [21]: 1330 ng/mL; concentration at 2 h [22]: 861 ng/mL; concentration at 0.25 h [23]: 190 ng/g; concentration at 1 h [24]: 606 ng/g; concentration at 2 h [25]: 457 ng/g; Kp at 0.25 h [26]: 0.56; Kp at 1 h [27]: 0.46; Kp at 2 h [28]: 0.53; Activity (Hypothalamus [29]): 400 ng/g; Activity (Hypothalamus [33]): Active; Time (Rattus norvegicus [34]): 100 s
6 |  |  |  |  |  |  |  |  |  |  |  |  |  |  |  |  |  |  |  | Cc1ccc(Sc2ccccc2N2CCNCC2)c(C)c1 [VORTIOXETINE] | bioavailability [35]: 75%
7 | < 2 |  |  |  |  |  |  |  |  |  |  |  |  |  |  |  |  |  |  | N#Cc1ccc2[nH]cc(CCCCN3CCN(c4ncc(-c5ccc(C(N)=O)cc5)cn4)CC3)c2c1 | 
8 | < 2 |  |  |  |  |  |  |  |  |  |  |  |  |  |  |  |  |  |  | COc1cc(F)ccc1-c1cnc(N2CCN(CCCCc3c[nH]c4ccc(C#N)cc34)CC2)nc1 | 
9 | 0.35 | 2.13 | 2.33 | 400 | 1100 | 241 | 662 | 722 | 2330 | 706 | 4310 | 1.59 | 4.68 | 1.95 | 4.46 | 382 | 118 | 39.2 | 37.2 | N#Cc1ccc2[nH]cc(CCCCN3CCN(c4ncc(-c5cccc(C(N)=O)c5)cn4)CC3)c2c1 | 
